The values that follow come from patent US20130129686A1, “Reducing Inflammation Using Cell Therapy” (Regents of the University, priority 2009, published 2013).

Entries after “also recorded” stand apart in the source; their conditions may differ.

The conditions of data set [1]: cited from earlier work.
For a further data set, the system named is PGE2. In words: PGE2 quantification in MAPC culture supernatant (PGE2 assay kit). To be noted: overnight treatment of MAPCs, 5 μM, for the period of the MLR culture (9 days). It is filed as cell-based, mouse. From the text:
Lymph nodes (LNs) were harvested from B6 mice and T-cells were purified using by negative selection using PE-conjugated anti-CD19, anti-CD11c, anti-NK1.1 and anti-PE magnetic beads (Miltenyi Biotech). Purity was routinely >95%. Spleens were harvested from BALB/c mice, T-cell depleted (anti-Thy1.1), and irradiated (3000 cGy). B6 T-cells were mixed at a 1:1 ratio with BALB/c splenic stimulators and plated in a 96 well round bottom plate (10^5 T-cells/well) or in the lower chamber of a 24 well plate TransWell insert (10^6 T-cells/well). MAPCs were irradiated (3000 cGy) and plated in a 96 well round bottom plate (10^4/well, 1:10) or in a 24 well TransWell plate (10^5/well, 1:10). […] Cells were pulsed with ^3H-thymidine (1 μCi/well) 16-18 hours prior to harvesting and counted in the absence of scintillation fluid on a β-plate reader. […]
Quantitative determination of PGE2 in cell culture supernatants was performed using PGE2 assay kit (R&D Systems) by following manufacturer's instructions. Quantities of IL-10, TGF-β, IL-2, TNF-α, IFN-γ, and IL-12 were determined using Luminex technology (R&D Systems). […] The color development is stopped, and the absorbance is read at 450 nm. […]

For data set [2], the system named is allogeneic T cell proliferation. In words: Mixed leukocyte reaction (MLR), 3H-thymidine uptake. The data set is classed as cell-based, mouse. An excerpt:
Lymph nodes (LNs) were harvested from B6 mice and T-cells were purified using by negative selection using PE-conjugated anti-CD19, anti-CD11c, anti-NK1.1 and anti-PE magnetic beads (Miltenyi Biotech). Purity was routinely >95%. Spleens were harvested from BALB/c mice, T-cell depleted (anti-Thy1.1), and irradiated (3000 cGy). B6 T-cells were mixed at a 1:1 ratio with BALB/c splenic stimulators and plated in a 96 well round bottom plate (10^5 T-cells/well) or in the lower chamber of a 24 well plate TransWell insert (10^6 T-cells/well). MAPCs were irradiated (3000 cGy) and plated in a 96 well round bottom plate (10^4/well, 1:10) or in a 24 well TransWell plate (10^5/well, 1:10). Cells were incubated in “T-cell media” in 200 μl/well (96 well) or 800 μl/well (24 well) of RPMI 1640 (Invitrogen, Carlsbad, Calif.) supplemented with 10% FCS, […] 2-ME (Sigma-Aldrich), 10 mM HEPES buffer (Invitrogen), 1 mM sodium pyruvate (Invitrogen), amino acid supplements (1.5 mM L-glutamine, L-arginine, L-asparagine) (Sigma-Aldrich), 100 U/ml penicillin, […] streptomycin (Sigma-Aldrich). Cells were pulsed with ^3H-thymidine (1 μCi/well) 16-18 hours prior to harvesting and counted in the absence of scintillation fluid on a β-plate reader. […] Trypan blue exclusion was used to assess effects on live cells. […]

Regarding `CCCCC[C@H](O)/C=C/[C@H]1[C@H](O)CC(=O)[C@@H]1C/C=C\CCCC(=O)O` [PGE2, prostaglandin E2], in data set [1], the half-life in vivo was approximately 30 s.
In the case of `COc1ccc2c(c1)c(CC(=O)O)c(C)n2C(=O)c1ccc(Cl)cc1` [indomethacin], the “upstream synthesis of PGE2 by MAPCs” value in the data set on PGE2 is “potently inhibited”.
Take `Cn1cc(C[C@@H](N)C(=O)O)c2ccccc21` [1MT, 1-methyl-D-tryptophan]: the “additive effect with indomethacin pre-treatment of MAPCs” value in data set [2] (200 μM 1MT in co-culture plus MAPCs pre-treated with 5 μM indomethacin) was “little/no additive effect”. The “T-cell proliferation in MLR-MAPC co-cultures with IDO inhibitor” value in data set [2] (200 μM in culture media) is listed as “did not increase T-cell proliferation; also recorded: did not affect T-cell proliferation”.
